Measurements published in patent US20100035926A1, “PYRAZOLE DERIVATIVES AS NON-STEROIDAL GLUCOCORTICOID RECEPTOR LIGANDS” (priority 2006, published 2010).
Like-named read-outs stand apart in the source and are kept apart here.

How the values were obtained:
GR [1] = target: T1, GR (Homo sapiens, UniProt P04150); assay: GR Agonist Assay - MMTV Assay (A549 MMTV cells, renilla luciferase reporter); format: cell-based; conditions: 6 h, agonists, read-out: average maximum asymptote in the MMTV agonist assay
T1 construct: endogenous in cells; host or cells: A549 (human lung carcinoma, ECACC No. 86012804), stably transfected with reporter plasmids only
T1 sequence (P04150 1-777): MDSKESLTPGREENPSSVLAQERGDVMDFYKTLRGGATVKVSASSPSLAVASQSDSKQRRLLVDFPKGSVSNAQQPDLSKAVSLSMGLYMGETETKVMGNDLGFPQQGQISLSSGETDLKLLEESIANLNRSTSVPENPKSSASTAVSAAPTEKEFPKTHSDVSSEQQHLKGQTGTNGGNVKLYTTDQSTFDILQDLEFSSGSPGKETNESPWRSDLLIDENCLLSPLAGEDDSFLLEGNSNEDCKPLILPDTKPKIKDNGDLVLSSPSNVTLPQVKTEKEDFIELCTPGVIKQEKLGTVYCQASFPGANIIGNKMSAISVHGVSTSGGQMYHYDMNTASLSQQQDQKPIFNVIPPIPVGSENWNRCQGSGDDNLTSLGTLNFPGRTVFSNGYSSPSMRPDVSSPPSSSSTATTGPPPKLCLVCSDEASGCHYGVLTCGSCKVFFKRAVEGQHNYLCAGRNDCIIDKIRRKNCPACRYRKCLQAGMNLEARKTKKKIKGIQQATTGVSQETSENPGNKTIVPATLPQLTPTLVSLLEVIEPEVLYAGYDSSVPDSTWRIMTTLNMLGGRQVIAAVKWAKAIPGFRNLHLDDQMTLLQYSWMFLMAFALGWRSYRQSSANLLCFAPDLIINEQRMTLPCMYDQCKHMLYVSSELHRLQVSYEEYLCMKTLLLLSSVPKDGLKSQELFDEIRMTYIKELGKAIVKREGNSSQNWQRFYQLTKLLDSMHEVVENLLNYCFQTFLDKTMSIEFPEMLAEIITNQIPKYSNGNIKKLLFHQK
Description: (§1) Stimulation of the cell line with GR agonists results in intracellular signal transduction and ultimately translocation of GR into the nucleus. This activates the inserted DNA sequence resulting in transcription of the integrated luciferase gene, which is quantified using a light emission. The stably transfected cell line was grown as a monolayer in DMEM supplemented with FCS-HI (10%), Non-essential amino acids (1%), L-Glutamine (2 mM), Pen/Strep (1%) and Geneticin (50 mg/ml).
A 90% confluent T175 flask of A549 MMTV cells was harvested by centrifugation for 5 min at 200 g, resuspended in assay buffer (DMEM supplemented with 10% FCS 2×HI, 2 mM Glutamax, Non essential amino acids and 25 mM HEPES) and diluted to 0.1×10^6/ml. 70 μl of cell solution was dispensed to each well of white Nunc 384-well plates, containing compound at the required concentration. […] The plates were covered to protect the reagents from light, and then incubated at room temperature for approximately 15 mins before reading them on a Viewlux.

GR [2] = target: T1, GR; assay: GR Functional Assay - NFκB Assay (A549 SPAP cells, TNFα stimulated); format: cell-based; conditions: for Emax: agonists, read-out: average maximum asymptote in the NFkB assay
Description: as §1, with “TNFα” for “GR agonists”, “NFκB” for “GR”, “SPAP” for “luciferase”, “calorimetric assay. […]” for “light emission.”
A 70% confluent T225 flask of A549 SPAP cells was harvested by centrifugation for 5 mins at 200 g, resuspended in assay buffer (DMEM supplemented with 10% FCS 2×HI, 2 mM L-Glutamine, 1% Pen/Strep and Non essential amino acids) and diluted to 0.16×10^6/ml. 60 μl of cell solution was dispensed to each well of clear Nunc 384-well plates, containing compound at the required concentration. […] Plates were equilibrated to room temperature for 1 hr prior to the addition of 25 μl of pNPP buffer (1M Diethanolamine pH 9.8, 0.5 mM MgCl2, 0.28M NaCl, 2 mg/ml pNPP) to each well of assay plates.

glucocorticoid receptor = target: T2, glucocorticoid receptor (Homo sapiens, UniProt P04150); assay: Glucocorticoid Receptor Binding Assay (fluorescence polarisation, displacement of Alexa 555 labelled dexamethasone derivative); conditions: at least once in this assay; read-out: glucocorticoid binding pIC50 (converted)
T2 construct: a partially purified full length glucocorticoid receptor
T2 sequence (P04150 1-777): T1 sequence (P04150 1-777)
Description: Compounds were solvated and diluted in DMSO, and transferred directly into assay plates. Fluorescent dexamethasone and a partially purified full length glucocorticoid receptor were added to the plates, together with buffer components to stabilise the GR protein and incubated at room temperature for 2 hr in the dark. Binding of each compound was assessed by analysing the displacement of fluorescent ligand by measuring the decrease in fluorescence polarisation signal from the mixture.

[3] = at least once, examples listed as agonists in NFkB and MMTV assays, read-out: potency pIC50 in the NFKB assay (converted)
[4] = at least once in the NFkB assay, A549 SPAP cells, read-out: pIC50 in the NFkB assay (converted)

Row | Emax (GR [1]) [%] | Emax (GR [2]; A549 SPAP cells) [%] | IC50 (GR [2]; [3]) [nM] | IC50 (glucocorticoid receptor) [nM] | IC50 (GR [2]; [4]) [nM] | Compound
1 | ≥ 40 | ≥ 40 | < 316 | < 1000 |  | CCN(CC(O)(CNC(=O)c1cnn(-c2ccc(Cl)cc2)c1N)C(F)(F)F)C(=O)c1ccccc1 (racemic) [Example 32 (racemic), 5-amino-1-(4-chlorophenyl)-N-(2-{[ethyl(phenylcarbonyl)amino]methyl}-3,3,3-trifluoro-2-hydroxypropyl)-1H-pyrazole-4-carboxamide]
2 |  |  |  | < 1000 | < 1000 | CN(CC(O)(CNC(=O)c1cnn(-c2ccc(F)cc2)c1N)C(F)(F)F)C(=O)c1ccccc1 (racemic) [Example 25 (racemic), 5-amino-1-(4-fluorophenyl)-N-(3,3,3-trifluoro-2-hydroxy-2-{[methyl(phenylcarbonyl)amino]methyl}propyl)-1H-pyrazole-4-carboxamide]
3 | ≥ 40 | ≥ 40 | < 316 | < 1000 |  | CCN(CC(O)(CNC(=O)c1cnn(-c2ccc(F)cc2)c1N)C(F)(F)F)C(=O)c1ccccc1C(C)=O (racemic) [Example 13 (racemic), N-(2-{[[(2-acetylphenyl)car-bonyl](ethyl)amino]methyl}-3,3,3-trifluoro-2-hydroxypropyl)-5-amino-1-(4-fluorophenyl)-1H-pyrazole-4-carboxamide]
4 | ≥ 40 | ≥ 40 | < 316 | < 1000 | < 1000 | CN(CC(O)(CNC(=O)c1cnn(-c2ccc(F)cc2)c1N)C(F)(F)F)C(=O)c1ccccc1C(F)(F)F (racemic) [Example 28 (racemic), 5-amino-1-(4-fluorophenyl)-N-{3,3,3-trifluoro-2-hydroxy-2-[(methyl{[2-(trifluoromethyl)phenyl]carbonyl}amino)methyl]propyl}-1H-pyrazole-4-carboxamide]
5 | ≥ 40 | ≥ 40 | < 316 | < 1000 |  | CCN(CC(O)(CNC(=O)c1cnn(-c2cccc(F)c2)c1N)C(F)(F)F)C(=O)c1ccccc1 (racemic) [Example 35 (racemic), 5-amino-N-(2-{[ethyl(phenylcarbonyl)amino]methyl}-3,3,3-trifluoro-2-hydroxypropyl)-1-(3-fluorophenyl)-1H-pyrazole-4-carboxamide]
6 | ≥ 40 | ≥ 40 | < 316 |  |  | CN(CC(O)(CNC(=O)c1cnn(-c2ccc(F)cc2)c1N)C(F)(F)F)C(=O)c1cccc2cccnc12 (racemic) [Example 42 (racemic), N-{2-[({[5-amino-1-(4-fluorophenyl)-1H-pyrazol-4-yl]carbonyl}amino)methyl]-3,3,3-trifluoro-2-hydroxypropyl}-N-methyl-8-quinolinecarboxamide]
7 |  |  |  |  | < 1000 | CN(CC(O)(CNC(=O)c1cnn(-c2ccc(F)cc2)c1N)C(F)(F)F)C(=O)c1ncccc1F (racemic) [Example 29 (racemic), N-{2-[({[5-amino-1-(4-fluorophenyl)-1H-pyrazol-4-yl]carbonyl}amino)methyl]-3,3,3-trifluoro-2-hydroxypropyl}-3-fluoro-N-methyl-2-pyridinecarboxamide]
8 |  |  |  | < 1000 |  | CN(CC(O)(CNC(=O)c1cnn(-c2ccc(F)cc2)c1N)C(F)(F)F)C(=O)c1cccc(C(F)(F)F)c1 (racemic) [Example 26 (racemic), 5-amino-1-(4-fluorophenyl)-N-{3,3,3-trifluoro-2-hydroxy-2-[(methyl{[3-(trifluoromethyl)phenyl]carbonyl}amino)methyl]propyl}-1H-pyrazole-4-carboxamide]
9 |  |  |  | < 1000 |  | CCN(CC(O)(CNC(=O)c1cnn(-c2ccc(F)cc2)c1N)C(F)(F)F)C(=O)c1ccc(Cl)cc1 (racemic) [Example 19 (racemic), 5-amino-N-(2-{[[(4-chlorophenyl)car-bonyl](ethyl)amino]methyl}-3,3,3-trifluoro-2-hydroxypropyl)-1-(4-fluorophenyl)-1H-pyrazole-4-carboxamide]
10 |  |  |  | < 1000 | < 1000 | CCN(CC(O)(CNC(=O)c1cnn(-c2ccc(F)cc2)c1N)C(F)(F)F)C(=O)c1ccc(F)c(F)c1 (racemic) [Example 21 (racemic), 5-amino-N-(2-{[[(3,4-difiuorophenyl)car-bonyl](ethyl)amino]methyl}-3,3,3-trifluoro-2-hydroxypropyl)-1-(4-fluorophenyl)-1H-pyrazole-4-carboxamide]
11 | ≥ 40 | ≥ 40 | < 316 |  |  | Nc1c(C(=O)NCC(O)(CN(CCF)C(=O)c2ccccc2)C(F)(F)F)cnn1-c1ccc(F)cc1 (single isomer, unassigned) [Example 1 Enantiomer 2, 5-Amino-1-(4-fluorophenyl)-N-(3,3,3-trifluoro-2-{[(2-fluoroethyl)(phenylcarbonyl)amino]methyl}-2-hydroxypropyl)-1H-pyrazole-4-carboxamide]
12 | ≥ 40 | ≥ 40 | < 316 |  | < 1000 | CCN(CC(O)(CNC(=O)c1cnn(-c2ccc(F)cc2)c1N)C(F)(F)F)C(=O)c1ccccc1 (single isomer, unassigned) [Example 14 Enantiomer 2, 5-amino-N-(2-{[ethyl(phenylcar-bonyl)amino]methyl}-3,3,3-trifluoro-2-hydroxypropyl)-1-(4-fluorophenyl)-1H-pyrazole-4-carboxamide]
13 | ≥ 40 | ≥ 40 | < 316 |  |  | Nc1c(C(=O)NCC(O)(CN(CCF)C(=O)c2ccccc2OC(F)F)C(F)(F)F)cnn1-c1ccc(F)cc1 (racemic) [Example 11 (racemic), 5-amino-N-(2-{[({2-[(difluoromethyl)oxy]phenyl}carbonyl) (2-fluoroethyl)amino]methyl}-3,3,3-trifluoro-2-hydroxypropyl)-1-(4-fluorophenyl)-1H-pyrazole-4-carboxamide]
14 |  |  |  | < 1000 |  | CCN(CC(O)(CNC(=O)c1cnn(-c2ccc(F)cc2)c1N)C(F)(F)F)C(=O)c1cccc(C(C)=O)c1 (racemic) [Example 22 (racemic), N-(2-{[[(3-acetylphenyl)car-bonyl](ethyl)amino]methyl}-3,3,3-trifluoro-2-hydroxypropyl)-5-amino-1-(4-fluorophenyl)-1H-pyrazole-4-carboxamide]
15 |  |  |  | < 1000 |  | CCN(CC(O)(CNC(=O)c1cnn(-c2ccccc2Cl)c1N)C(F)(F)F)C(=O)c1ccccc1 (racemic) [Example 36 (racemic), 5-amino-1-(2-chlorophenyl)-N-(2-{[ethyl(phenylcar-bonyl)amino]methyl}-3,3,3-trifluoro-2-hydroxypropyl)-1H-pyrazole-4-carboxamide]
